# Experimental data published in patent EP0714404B1, “ANTI-INFLAMMATORY PEPTIDES” (CURATIVE TECHNOLOGIES, INC., priority 1993, dated 1995).
# Read-outs that look alike come from different tables or passages of the source. Residues, ends and D or L forms follow the SMILES beside them.
# What was measured:
# Assay type in all cases: in vivo, mice
# [1] = tested on: Arachidonic Acid Induced Inflammation; assay: mouse ear model, arachidonic acid (AA) induced inflammation, ear thickness
# Experimental: (§1) The anti-inflammatory properties of CT-112 (SEQ. ID NO: 1) were assessed using a standardized assay for anti-inflammatory activity, i.e., the mouse ear model in which arachidonic acid (AA) is used to induce an inflammatory reaction (Young et al., 1984, J. Invest. Dermatol. 82:367-371; Doherty, et al., 1988, J. Invest. Dermatol. 91:298-302).
# (§2) Female mice (C57BL/6UAF, Charles River Breeding Laboratories, approximately 15-18 g) were obtained and acclimated for 2 weeks prior to use. The animals were approximately 14 weeks old at the start of the study.
# (§3) To prepare minipumps for implantation, CT-112 (SEQ. ID NO: 1) was dissolved in PBS. The material was loaded into Alzet minipumps set to deliver 0.05 (5 animals), 0.1 (10 animals), 1 (10 animals), or 2.5 (5 animals) mg of CT-112 (SEQ. ID NO: 1) per animal per day. Minipumps for implantation into control animals contained only PBS. As a positive control, one set of 10 mice received 100 mg/kg of phenidone, a potent 5-lipoxygenase inhibitor which acts as an anti-inflammatory agent, 15 min prior to challenge with AA.
# (§4) For subcutaneous implantation of minipumps, animals were anesthetized with Ketamine/Xylazine. The Ketamine (Aveco Lot #440140) was injected at 80 mg/kg and the Xylazine (Rugby Laboratories Lot #26040-B) at 16 mg/kg and the Alzet pumps were implanted subcutaneously in the dorsothoracic area. Animals were allowed to recover and then housed and given food and water ad libitum for 5 days.
# (§5) On the sixth day following pump implantation, 0.01 ml of AA was applied to the inner and outer surfaces of the right ear by means of an automatic microliter pipette. One hr following AA application, the mice were sacrificed and ear thickness was measured with a Mitutoyo No. 7300 Gauge Caliper. The left ears were also measured as an internal control.
# (§6) Mice were implanted with Alzet mini-pumps set to deliver 60 mg/kg/day for either 7, 3, or 1 days. A separate group of 5 mice received 3 intraperitoneal injections of CT-112 (60 mg/kg/injection) at 24, 1 and 0.25 hr prior to AA challenge. CT-112 (SEQ. ID NO: 1) was prepared for injection by dissolving the compound in Dulbecco's PBS to give a final CT-112 (SEQ. ID NO: 1) concentration of 5 mg/ml. The control mice were implanted with Alzet minipumps that delivered PBS for 7 days. The AA challenge was the same as described supra in Example 7.
# (§7) Administration of CT-112 (SEQ. ID NO: 1) (60 mg/kg/injection) via multiple intraperitoneal injections was performed at the following times prior to AA challenge: • a) 6, 3, 1 and 0.25 hr; • b) 3, 1 and 0.25 hr; or • c) 1 and 0.25 hr.
# (§8) In addition, the effect of a single administration of CT-112 (SEQ. ID NO: 1) (60 mg/kg) by intraperitoneal injection was performed at either 1 or 3 hr prior to AA challenge. Control mice had Alzet minipumps implanted to deliver PBS for 7 days prior to AA challenge. The AA challenge was the same as described supra in Example 7. The results of the multiple dosing regimens and the 1 hr and 3 hr single dosing regimens were compared to the anti-inflammatory activity of CT-112 (SEQ. ID NO: 1) delivered via Alzet minipump set to deliver 60 mg/kg/day for 7 days using 5 animals per treatment.
# In a separate experiment, the effect of multiple intraperitoneal injections of CT-112 (SEQ. ID NO: 1) at either 6, 3, 1 and 0.25 hr, or 16, 3, 1 and 0.25 hr prior to AA challenge was assessed. […]
# [2] = tested on: Arachidonic Acid Induced Myeloperoxidase Activity in Mouse Ear; assay: myeloperoxidase activity in AA-treated mouse ear tissue (marker for PMNs); set-up: dose or concentration left out as unconfirmed; details: Phenidone 100
# Experimental: Myeloperoxidase activity in ear tissue was measured as a marker for the presence or absence of polymorphonuclear leukocytes (PMNs) (Barone et al., 1991, J. Neurosci. Res. 29:336-345). After measurement of ear thickness, ears were dissected from the mice and homogenized in 50mM Tris-HCL, pH 7.4 at 4°C to give a 10% (w/v) homogenate. Aliquots of the homogenate were used to determine the amount of myeloperoxidase activity present in the tissue using o-dianisidine (Sigma Chem Co., St. Louis MO) and hydrogen peroxide as substrates and monitoring chromophore generation at 460 nm (Barone et al., 1991, J. Neurosci. Res. 29:336-345).
# [3] = tested on: Delayed Type Hypersensitivity; assay: mouse model of delayed-type hypersensitivity induced by DNCB; details: Prednisone ip 25 mg/kg, 2 hr prior to challenge
# Experimental: CT-112 (SEQ. ID NO: 1) was tested for its ability to modulate the immune response in a mouse model of delayed hypersensitivity (Filipp et al., 1984, Allergy, 39: 499-507; Diezel et al., 1989 J. Invest. Dermatol. 93:322-326). The mice used in this study were 8-wk old hairless females (Jackson Laboratories). The mice were sensitized to a contact allergen (1-chloro-2,4-dinitrobenzene, DNCB) by painting the dorsothoracic region twice daily for 5 consecutive days with 50 µl of 0.5% DNCB in 75% acetone:25% vegetable oil. The animals were allowed to rest for 24 hr prior to challenge with DNCB. On the sixth day after initiation of the sensitization treatments, the animals were challenged with 50 µl of DNCB solution applied to the left ear. After 24 hrs, the ear thickness was determined and compared to the unchallenged ear.
# The treatment groups were as follows: • a) PBS control; • b) Prednisone (intraperitoneal injection of 25 mg/kg, 2 hr prior to challenge); • c) 7-day pump (60 mg CT-112/kg/24 hr); • d) CT-112 (intraperitoneal injections of 60 mg/kg/injection at 3, 1, and 0.25 hr prior to challenge and 3, 6 and 21 hr post-challenge); • e) DMSO control (topical application of 50 µl at 3, 1 and 0.25 hr prior to challenge; and • f) CT-112 in DMSO (20 mg/ml, topical application of 50 µl at 3, 1, and 0.25 hr prior to challenge and 3, 6 and 21 hr post-challenge).
# [4] = tested on: Arachidonic Acid Induced Inflammation; details: mouse, in vivo
# Experimental: as §1, §2, §3, §4, §5, §6, §7, §8
# In a separate experiment, the effect of multiple intraperitoneal injections of CT-112 (SEQ. ID NO: 1) at either 6, 3, 1 and 0.25 hr, or 16, 3, 1 and 0.25 hr prior to AA challenge was assessed. The results of both multi-dosing regimens were compared to both phenidone (100 mg/kg administered 15 min prior to AA challenge) and CT-112 (SEQ. ID NO: 1) administered via Alzet mini-pump (60 mg/kg/day for 7 days). For this latter study, the number of animals receiving the single injection of CT-112 (SEQ. ID NO: 1) was increased from 5 to 10.
# Administration to mice of CT-112 (SEQ. ID NO: 1) (60 mg/kg/injection) via multiple subcutaneous injections prior to AA challenge was performed at: • a) 6, 3, 1 and 0.25 hr; • b) 3, 1 and 0.25 hr; or • c) 1 and 0.25 hr. […]
# [5] = Table V, Phenidone 100 mg/kg 15 min prior to AA
structure (smiles),measurement,setting,value
O=C1CCN(c2ccccc2)N1 [Phenidone],Ear Thickness,"[1]; Phenidone 100mg/kg, 15 min prior to AA, 1 hr after AA",0.01176 ± 0.0008 (10) in
same,% Inhibition of Inflammation,"[1]; Table III, Phenidone 100 mg/kg",88%
same,Thickness Difference (Left-Right),"[1]; Table III, Phenidone 100 mg/kg",0.00073 ± 0.00153 in
same,% Inhibition of Inflammation,[1]; [5],84.2%
same,Thickness Difference (Left-Right),[1]; [5],0.00102 ± 0.00038(5) in
same,Myeloperoxidase Activity,[2],14.5 ± 8.6 µmole of chromophore formed/min
C[C@]12C=CC(=O)C=C1CC[C@@H]1[C@@H]2C(=O)C[C@@]2(C)[C@H]1CC[C@]2(O)C(=O)CO [Prednisone],% Inhibition of Inflammation,[3],96.7%
same,Thickness Difference (Left-Right),[3]; 24 hrs after DNCB,0.00014 ± 0.000446 in
"CC(C)[C@H](NC(=O)[C@H](CCC(N)=O)NC(=O)[C@H](CO)NC(=O)[C@@H](NC(=O)[C@@H](N)[C@@H](C)O)[C@@H](C)O)C(=O)O [CT-114, Thr-Thr-Ser-Gln-Val] (H-TTSQV-OH)",% Inhibition of Inflammation,[4]; 6 mg/kg/day,59.3%
same,% Inhibition of Inflammation,[4]; 60 mg/kg/day,62.4%
